From patent US20160326142A1, “PYRAZOLE CARBOXAMIDE COMPOUNDS, COMPOSITIONS AND METHODS OF USE” (Genentech, Inc., priority 2012, published 2016)

Target: T1, ITK (Homo sapiens, UniProt Q08881)
T1 construct: purchased Invitrogen PV3875
T1 sequence (Q08881 1-620): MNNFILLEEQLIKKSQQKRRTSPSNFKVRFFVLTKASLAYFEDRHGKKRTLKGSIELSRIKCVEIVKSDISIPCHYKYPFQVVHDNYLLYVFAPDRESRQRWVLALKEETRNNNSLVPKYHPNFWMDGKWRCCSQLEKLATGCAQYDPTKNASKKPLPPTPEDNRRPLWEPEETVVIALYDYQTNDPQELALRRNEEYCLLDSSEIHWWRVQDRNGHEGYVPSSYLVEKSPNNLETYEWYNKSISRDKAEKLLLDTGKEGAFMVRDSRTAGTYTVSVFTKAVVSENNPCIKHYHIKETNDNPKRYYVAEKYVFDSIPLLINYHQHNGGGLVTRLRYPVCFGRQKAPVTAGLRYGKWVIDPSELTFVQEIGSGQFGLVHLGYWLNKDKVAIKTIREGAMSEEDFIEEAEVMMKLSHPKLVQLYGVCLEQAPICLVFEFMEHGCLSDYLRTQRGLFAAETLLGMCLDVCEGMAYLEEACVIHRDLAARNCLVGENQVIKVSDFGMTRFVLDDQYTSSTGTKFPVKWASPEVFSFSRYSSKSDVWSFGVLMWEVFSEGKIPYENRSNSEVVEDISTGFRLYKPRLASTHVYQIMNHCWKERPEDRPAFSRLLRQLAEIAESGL
Assay: ITK enzyme assay (Caliper or LCMS peptide phosphorylation)
Format: biochemical
Settings: purified ITK (Invitrogen PV3875), 20 μM ATP, Ki by Morrison's quadratic equation
Procedure, shortened: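 Ki values come from Morrison quadratic fits of activity versus inhibitor concentration, adjusted for ATP-competitive inhibition against ATP/Km,app. Substrate and phosphopeptide from purified ITK reactions were resolved either microfluidically (Caliper, EDTA stop) or by LC-MS MRM (TCA stop).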

Compound	Ki [nM]
CC1(C)Cc2[nH]nc(C(=O)Nc3cnn(C(CS(C)(=O)=O)c4cccnc4)c3)c2C1 (single isomer, unassigned) [Example 97b, 5,5-dimethyl-N-(1-(2-(methylsulfonyl)-1-(pyridin-3-yl)ethyl)-1H-pyrazol-4-yl)-1,4,5,6-tetrahydrocyclopenta[c]pyrazole-3-carboxamide]	6
CC(c1cncs1)n1cc(NC(=O)c2n[nH]c3c2CCC(C)(C)C3)cn1 (single isomer, unassigned) [Example 98a, 6,6-dimethyl-N-(1-(1-(thiazol-5-yl)ethyl)-1H-pyrazol-4-yl)-4,5,6,7-tetrahydro-1H-indazole-3-carboxamide]	8
CC(c1cncs1)n1cc(NC(=O)c2n[nH]c3c2CCC(C)(C)C3)cn1 (single isomer, unassigned) [Example 98b, 6,6-dimethyl-N-(1-(1-(thiazol-5-yl)ethyl)-1H-pyrazol-4-yl)-4,5,6,7-tetrahydro-1H-indazole-3-carboxamide]	2
CCC(c1cnn(CC)c1)n1cc(NC(=O)c2n[nH]c3c2CCC(C)(C)C3)cn1 (single isomer, unassigned) [Example 99a, N-(1-(1-(1-ethyl-1H-pyrazol-4-yl)propyl)-1H-pyrazol-4-yl)-6,6-dimethyl-4,5,6,7-tetrahydro-1H-indazole-3-carboxamide]	4
CCC(c1cnn(CC)c1)n1cc(NC(=O)c2n[nH]c3c2CCC(C)(C)C3)cn1 (single isomer, unassigned) [Example 99b, N-(1-(1-(1-ethyl-1H-pyrazol-4-yl)propyl)-1H-pyrazol-4-yl)-6,6-dimethyl-4,5,6,7-tetrahydro-1H-indazole-3-carboxamide]	4
CCn1cc(C(C)n2cc(NC(=O)c3n[nH]c4c3CCC(C)(C)C4)cn2)cn1 (single isomer, unassigned) [Example 100a, N-(1-(1-(1-ethyl-1H-pyrazol-4-yl)ethyl)-1H-pyrazol-4-yl)-6,6-dimethyl-4,5,6,7-tetrahydro-1H-indazole-3-carboxamide]	17
CCn1cc(C(C)n2cc(NC(=O)c3n[nH]c4c3CCC(C)(C)C4)cn2)cn1 (single isomer, unassigned) [Example 100b, N-(1-(1-(1-ethyl-1H-pyrazol-4-yl)ethyl)-1H-pyrazol-4-yl)-6,6-dimethyl-4,5,6,7-tetrahydro-1H-indazole-3-carboxamide]	7
Cc1nnc(C(C)n2cc(NC(=O)c3n[nH]c4c3CCC(C)(C)C4)cn2)o1 (single isomer, unassigned) [Example 101a, 6,6-dimethyl-N-(1-(1-(5-methyl-1,3,4-oxadiazol-2-yl)ethyl)-1H-pyrazol-4-yl)-4,5,6,7-tetrahydro-1H-indazole-3-carboxamide]	41
Cc1nnc(C(C)n2cc(NC(=O)c3n[nH]c4c3CCC(C)(C)C4)cn2)o1 (single isomer, unassigned) [Example 101b, 6,6-dimethyl-N-(1-(1-(5-methyl-1,3,4-oxadiazol-2-yl)ethyl)-1H-pyrazol-4-yl)-4,5,6,7-tetrahydro-1H-indazole-3-carboxamide]	12
CC1(C#N)CCc2c(C(=O)Nc3cnn(Cc4ccccc4)c3)n[nH]c2C1 (single isomer, unassigned) [Example 102a, N-(1-benzyl-1H-pyrazol-4-yl)-6-cyano-6-methyl-4,5,6,7-tetrahydro-1H-indazole-3-carboxamide]	300
CC1(C#N)CCc2c(C(=O)Nc3cnn(Cc4ccccc4)c3)n[nH]c2C1 (single isomer, unassigned) [Example 102b, N-(1-benzyl-1H-pyrazol-4-yl)-6-cyano-6-methyl-4,5,6,7-tetrahydro-1H-indazole-3-carboxamide]	10
CC(c1ncco1)n1cc(NC(=O)c2n[nH]c3c2CCC(C)(C)C3)cn1 (single isomer, unassigned) [Example 103a, 6,6-dimethyl-N-(1-(1-(oxazol-2-yl)ethyl)-1H-pyrazol-4-yl)-4,5,6,7-tetrahydro-1H-indazole-3-carboxamide]	20
CC(c1ncco1)n1cc(NC(=O)c2n[nH]c3c2CCC(C)(C)C3)cn1 (single isomer, unassigned) [Example 103b, 6,6-dimethyl-N-(1-(1-(oxazol-2-yl)ethyl)-1H-pyrazol-4-yl)-4,5,6,7-tetrahydro-1H-indazole-3-carboxamide]	9
O=C(Nc1cnn(Cc2ccccc2)c1)c1n[nH]c2c1CCC1(CCCC1=O)C2 (single isomer, unassigned) [Example 105a, N-(1-benzyl-1H-pyrazol-4-yl)-2-oxo-1′,4′,5′,7′-tetrahydrospiro[cyclopentane-1,6′-indazole]-3′-carboxamide]	3
O=C(Nc1cnn(Cc2ccccc2)c1)c1n[nH]c2c1CCC1(CCCC1=O)C2 (single isomer, unassigned) [Example 105b, N-(1-benzyl-1H-pyrazol-4-yl)-2-oxo-1′,4′,5′,7′-tetrahydrospiro[cyclopentane-1,6′-indazole]-3′-carboxamide]	240
CC(c1cccnc1)n1cc(NC(=O)c2n[nH]c3c2CCC(C)(C)C3)cn1 (single isomer, unassigned) [Example 106a, 6,6-dimethyl-N-(1-(1-(pyridin-3-yl)ethyl)-1H-pyrazol-4-yl)-4,5,6,7-tetrahydro-1H-indazole-3-carboxamide]	3
CC(c1cccnc1)n1cc(NC(=O)c2n[nH]c3c2CCC(C)(C)C3)cn1 (single isomer, unassigned) [Example 106b, 6,6-dimethyl-N-(1-(1-(pyridin-3-yl)ethyl)-1H-pyrazol-4-yl)-4,5,6,7-tetrahydro-1H-indazole-3-carboxamide]	5
CC(c1ccncc1)n1cc(NC(=O)c2n[nH]c3c2CCC(C)(C)C3)cn1 (single isomer, unassigned) [Example 107a, 6,6-dimethyl-N-(1-(1-(pyridin-4-yl)ethyl)-1H-pyrazol-4-yl)-4,5,6,7-tetrahydro-1H-indazole-3-carboxamide]	18
CC(c1ccncc1)n1cc(NC(=O)c2n[nH]c3c2CCC(C)(C)C3)cn1 (single isomer, unassigned) [Example 107b, 6,6-dimethyl-N-(1-(1-(pyridin-4-yl)ethyl)-1H-pyrazol-4-yl)-4,5,6,7-tetrahydro-1H-indazole-3-carboxamide]	14
CC(c1cncc(F)c1)n1cc(NC(=O)c2n[nH]c3c2CCC(C)(C)C3)cn1 (single isomer, unassigned) [Example 108a, N-(1-(1-(5-fluoropyridin-3-yl)ethyl)-1H-pyrazol-4-yl)-6,6-dimethyl-4,5,6,7-tetrahydro-1H-indazole-3-carboxamide]	17
CC(c1cncc(F)c1)n1cc(NC(=O)c2n[nH]c3c2CCC(C)(C)C3)cn1 (single isomer, unassigned) [Example 108b, N-(1-(1-(5-fluoropyridin-3-yl)ethyl)-1H-pyrazol-4-yl)-6,6-dimethyl-4,5,6,7-tetrahydro-1H-indazole-3-carboxamide]	5
COc1ccc(C(C)n2cc(NC(=O)c3n[nH]c4c3CCC(C)(C)C4)cn2)cn1 (single isomer, unassigned) [Example 109a, N-(1-(1-(6-methoxypyridin-3-yl)ethyl)-1H-pyrazol-4-yl)-6,6-dimethyl-4,5,6,7-tetrahydro-1H-indazole-3-carboxamide]	4
COc1ccc(C(C)n2cc(NC(=O)c3n[nH]c4c3CCC(C)(C)C4)cn2)cn1 (single isomer, unassigned) [Example 109b, N-(1-(1-(6-methoxypyridin-3-yl)ethyl)-1H-pyrazol-4-yl)-6,6-dimethyl-4,5,6,7-tetrahydro-1H-indazole-3-carboxamide]	21
CC1(C)CCc2c(C(=O)Nc3cnn(C(c4cccc(C#N)c4)C4CCS(=O)(=O)CC4)c3)n[nH]c2C1 (single isomer, unassigned) [Example 110a, N-(1-((3-cyanophenyl)(1,1-dioxidotetrahydro-2H-thiopyran-4-yl)methyl)-1H-pyrazol-4-yl)-6,6-dimethyl-4,5,6,7-tetrahydro-1H-indazole-3-carboxamide]	0.2
CC1(C)CCc2c(C(=O)Nc3cnn(C(c4cccc(C#N)c4)C4CCS(=O)(=O)CC4)c3)n[nH]c2C1 (single isomer, unassigned) [Example 110b, N-(1-((3-cyanophenyl)(1,1-dioxidotetrahydro-2H-thiopyran-4-yl)methyl)-1H-pyrazol-4-yl)-6,6-dimethyl-4,5,6,7-tetrahydro-1H-indazole-3-carboxamide]	3
CC1(C)CCc2c(C(=O)Nc3cnn(C(c4ccccc4)C4CCOCC4)c3)n[nH]c2C1 (single isomer, unassigned) [Example 113a, 6,6-dimethyl-N-(1-(phenyl(tetrahydro-2H-pyran-4-yl)methyl)-1H-pyrazol-4-yl)-4,5,6,7-tetra hydro-1H-indazole-3-carboxamide]	5
